Data reported in patent US20250354188A1, “METHOD FOR SYNTHESIZING CELOSIANIN II, METHOD FOR SYNTHESIZING BETAXANTHIN, AMYLOID-ß POLYMERIZATION INHIBITOR OR THERAPEUTIC OR PROPHYLACTIC AGENT FOR ALZHEIMER'S DISEASE, AMYLOID PEPTIDE AGGREGATION INHIBITOR, AND HIV-1 PROTEASE ACTIVITY INHIBITOR” (priority 2019, published 2025).

Legend:
β-Amyloid (1-40) = target: T1, β-Amyloid (1-40) (Homo sapiens, UniProt P05067); experiment: Amyloid-β polymerization inhibitory activity in Thioflavin T (ThT) assay; assay type: biochemical; details: sample 50 μM final; ThT fluorescence for 4 hours
T1 construct: SensoLyte Thioflavin T β-Amyloid (1-40) Aggregation Kit (ANASPEC); purchased ANASPEC
T1 sequence (P05067 672-711 limits assumed): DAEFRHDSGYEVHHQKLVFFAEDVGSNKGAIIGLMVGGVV
Method: ThT assay involved evaluating polymerization using SensoLyte Thioflavin T β-Amyloid (1-40) Aggregation Kit (ANASPEC) in accordance with an accompanying protocol.
As an apparatus used for measurement, Varioskan LUX (Thermo Fisher Scientific) was used, and fluorescence derived from the polymerization of amyloid-β was measured for 4 hours at intervals of 5 minutes. A sample was stirred for 15 seconds before each measurement and subjected to the measurement. An excitation wavelength of 440 nm and a detection wavelength of 484 nm were used.
The sample used for the ThT assay was prepared to have a final concentration of 50 μM before being used for the experiment. Tannic acid (Ono, K., Hasegawa, K., Naiki, H. & Yamada, M. (2004) Anti-amyloidogenic activity of tannic acid and its activity to destabilize Alzheimer's beta-amyloid fibrils in vitro. Biochim Biophys Acta 1690, 193-202.) was used as a control of an inhibitor.
The sample used for the ThT assay was prepared to have a final concentration of 50 μM before being used for the experiment. An extracted sample from the BY-2 cells having an empty vector introduced therein (VC) and water (PC) in place of a sample were used as controls. In addition, betanin and curcumin were used as positive controls. Curcumin is a plant-derived substance reported to have amyloid-β polymerization inhibitory activity (Yang F, Lim GP, Begum AN, et al. Curcumin inhibits formation of amyloid betaoligomers and fibrils, binds plaques, and reduces amyloid in vivo. J BiolChem. 2005; 280(7): 5892-5901. doi:10.1074/jbc.M404751200).

[1] = Stability of betalain pigment aqueous solutions at 37° C.; assay type: physicochemical; details: for red color after treatment: 4 days at 37° C.
Method: An aqueous solution of each of celosianin II, amaranthin, and betanin was evaluated for its stability at 37° C.
For each of betanin, amaranthin, and celosianin II, a 1 mM aqueous solution was prepared, and left to stand still in an incubator at 37° C. Absorbances at 536 nm on days 0, 1, 2, 3, and 4 were measured, and for the resultant values, relative amounts with respect to the absorbance on day 0 were calculated.

[2] = system: Transgenic nematodes (CL2006) expressing human amyloid-β 1-42, Aβ42; experiment: Paralysis test using transgenic nematodes expressing amyloid peptide; assay type: in vivo, Caenorhabditis elegans; details: fed with 50 μM betanin, compared to group fed with dextrin (control)
Method: In a transgenic nematode expressing an amyloid peptide, aggregates of the amyloid peptide are formed in the body along with its growth period, and the nematode is paralyzed. In view of this, whether feeding with betanin changed a paralysis ratio was evaluated.
Nematodes were grown using NGM plates (nematode growth medium), and grown using Escherichia coli (OP50 strain) as food under the condition of 15° C. unless otherwise indicated.
Transgenic nematodes (CL2006) expressing an amyloid peptide (human amyloid-β 1-42, Aβ42) were obtained from the Caenorhabditis Genetics Center (CGC), USA. The CL2006 expresses Aβ42 in the cells of the body wall muscle of the nematode, and then aggregation of the amyloid peptide occurs in the muscle. […]
The individuals grown to adults through the synchronized growth were transferred to NGM plates containing various concentrations (2 μM, 10 μM, and 50 μM) of food having mixed therein dextrin or betanin, and were grown. After the nematodes had been transferred, the nematodes were each evaluated for paralysis at constant intervals. […]
Paralysis was evaluated on the basis of the behavior of the nematode after the nose of the nematode had been lightly tapped with a platinum wire.

[3] = target: T2, human amyloid-β 1-40, Aβ40 (Homo sapiens, UniProt P05067); experiment: Observation of amyloid peptide aggregation using transmission electron microscope; assay type: biochemical; details: 25 μM Aβ40 + 50 μM sample, 5 days; for effect on polymerization and amorphous aggregation of amyloid fibrils (conclusion from TEM): 37° C.; for aggregation of the amyloid peptide observed by TEM: PBS pH 7.4, 37° C., dark
T2 construct: A lyophilized amyloid peptide (human amyloid-β 1-40, Aβ40) was purchased from Peptide Institute, Inc; purchased Peptide Institute, Inc
T2 sequence (P05067 672-711 limits assumed): as above
Method: A lyophilized amyloid peptide (human amyloid-β 1-40, Aβ40) was purchased from Peptide Institute, Inc., dissolved as a stock solution at a concentration of 1 mM using dimethyl sulfoxide, and stored at-20° C. until use.
As a betaxanthin, the betaxanthin extracted from the betaxanthin-producing BY2 cells (FIG. 10) was used.
With regard to reaction conditions, Aβ40 and a sample (betanin, amaranthin, celosianin II, ferulic acid, or the betaxanthin) were prepared with PBS (pH 7.4) so as to have a final concentration of 25 μM and a final concentration of 50 μM, respectively. As a control, distilled water was used in place of the sample. The prepared sample was left to stand still in a dark place at 37° C. for 5 days.
The sample after the reaction was stained on a grid mesh for a transmission electron microscope by adding about 2 μL of a 2% uranyl acetate solution thereto. After the solution had dried, the aggregation of the amyloid peptide was observed using a transmission electron microscope (Hitachi 7650 TEM).

[4] = target: T3, recombinant HIV-1 protease (Human immunodeficiency virus type 1 group M subtype B, UniProt P04585); experiment: HIV-1 protease inhibitory activity (residual substrate peptide by HPLC); assay type: biochemical
T3 construct: A recombinant HIV-1 protease (ab84117) from Abcam was used as an HIV-1 protease; purchased Abcam ab84117
Method: A recombinant HIV-1 protease (ab84117) from Abcam was used as an HIV-1 protease, and an HIV-1 protease substrate (Lys-Ala-Arg-Val-Nle-p-nitro-Phe-Glu-Ala-Nle amide) from Sigma-Aldrich was used as a substrate peptide for the HIV-1 protease. HIV-1 protease activity evaluation was performed with reference to a previously reported method (Boso, G., Orvell, C. and Somia, N.V. (2015) The nature of the N-terminal amino acid residue of HIV-1 RNase H is critical for the stability of reverse transcriptase in viral particles. J. Virol. 89, 1286-1297.). Amaranthin, betanin, or celosianin II was added to 16 pmol of the HIV-1 protease and 4 nmol of the HIV-1 protease substrate, a buffer (25 mM NaCl, 25 mM Na2HPO4, 1 mM dithiothreitol, pH 4.7) was added so that the amount of a reaction liquid was 30 μl, and a reaction was performed at 25° C. for 2 hours. With regard to the addition amount of amaranthin, betanin, or celosianin II, amaranthin, betanin, and celosianin II were each added at the ratio of a 100-fold amount with respect to the amount of the HIV-1 protease. For celosianin II, the ratios of 25-and 50-fold amounts were further evaluated. An HIV-1 inhibitor saquinavir was used as a positive control.
After the reaction, the reaction liquid was measured for the amount of the residual substrate peptide through use of HPLC, and a residual ratio with respect to the substrate before the reaction was calculated. For the HPLC, LC-20AD from Shimadzu was utilized, and a Shim-pack GWS C18 column (5 μm; 200 mm×4.6 mm i.d.; Shimadzu GLC) was used as an analytical column. For an analytical solvent system, 0.05% TFA in water was used as solvent A and 0.05% TFA in acetonitrile was used as solvent B. An HPLC program was set to a linear gradient from 0% of solvent B at 0 minutes to 50% of solvent B at 50 minutes, and the HPLC was performed at a flow rate of 0.5 mL/min and 25° C. Analysis was performed with an analytical wavelength being set to 260 nm allowing the HIV-1 protease substrate peptide to be detected.

Compound	amyloid-β polymerization inhibitory activity (β-Amyloid (1-40))	red color after treatment ([1]; 1 mM aqueous solution)	paralysis ratio [2]	effect on polymerization and amorphous aggregation of amyloid fibrils (conclusion from TEM) [3]	aggregation of the amyloid peptide observed by TEM [3]	residual amounts of the betalain pigments (absorbance at 536 nm relative to day 0) ([1]; 1 mM aqueous solution, 37° C., days 0 to 4)	stability of aqueous solution ([1]; 37° C., compared to amaranthin and betanin)	dependence of HIV-1 protease inhibitory activity on amount ([4]; 25-, 50- and 100-fold amounts with respect to HIV-1 protease)	HIV-1 protease activity inhibitory effect relative to amaranthin ([4]; 25-fold celosianin II vs 100-fold amaranthin) [times]	HIV-1 protease inhibitory activity ([4]; celosianin II added in 25-fold amount with respect to HIV-1 protease, 25° C., 2 hours, pH 4.7)
O=C(O)C1=C/C(=C/C=[N+]2/c3cc(O)c(OC4OC(CO)[C@@H](O)C(O)C4O)cc3CC2C(=O)[O-])CC(C(=O)O)N1 (stereo in doubt) [betanin]	comparable to or higher than that of the existing inhibitor (tannic acid)	disappeared	significant amelioration (reduction) in paralysis ratio	inhibiting both of the polymerization and amorphous aggregation of amyloid fibrils	only short amyloid fibrils were observed	–	–	–	–	–
O=C(O)C1=C/C(=C/C=[N+]2c3cc(O)c(O[C@@H]4O[C@H](CO)[C@@H](O)[C@H](O)[C@H]4O[C@@H]4O[C@H](C(=O)O)[C@@H](O)[C@H](O)[C@H]4O)cc3C[C@H]2C(=O)[O-])C[C@@H](C(=O)O)N1 [amaranthin]	possessed inhibitory activity, though its effect was low as compared to celosianin II and betanin	disappeared	–	inhibiting both of the polymerization and amorphous aggregation of amyloid fibrils	only short amyloid fibrils were observed	–	–	–	–	–
COc1cc(/C=C/C(=O)O[C@H]2[C@H](O[C@H]3[C@H](Oc4cc5c(cc4O)[N+](=C/C=C4/C=C(C(=O)O)N[C@H](C(=O)O)C4)[C@H](C(=O)[O-])C5)O[C@H](CO)[C@@H](O)[C@@H]3O)O[C@H](C(=O)O)[C@@H](O)[C@@H]2O)ccc1O [celosianin II]	comparable to or higher than that of the existing inhibitor (tannic acid)	still exhibited a red color	–	inhibiting both of the polymerization and amorphous aggregation of amyloid fibrils	only short amyloid fibrils were observed	more abundant than amaranthin and betanin	stable	amount-dependent	4	comparable to that in the case where a 100-fold amount of amaranthin was added
COc1cc(/C=C/C(=O)O)ccc1O [ferulic acid]	weaker than those of celosianin II, the betanin pigment, and amaranthin	–	–	inhibiting both of the polymerization and amorphous aggregation of amyloid fibrils	only short amyloid fibrils were observed	–	–	–	–	–
